Where two headings read alike, the source gives them in different places.
Assays:
[1] = format: physicochemical; details: pH 2.7
physchem = details: pH 2.7
Description: Measurement of log P values was performed according EEC directive 79/831 Annex V.A8 by HPLC (High Performance Liquid Chromatography) on reversed phase columns with the following methods: ^[a]

SMILES: COC(=O)C1(C)CC(c2ccc3ncc(Cl)cc3c2)=NO1 (stereo not drawn) [II-23, methyl 3-(3-chloroquinolin-6-yl)-5-methyl-4,5-dihydro-1,2-oxazole-5-carboxylate]
- chromatographic logP [1]: 2.58
- chromatographic logP (physchem): 2.58

SMILES: CC1(C(=O)O)CC(c2ccc3ncc(I)cc3c2)=NO1 (stereo not drawn) [Compound No. II-09]
- chromatographic logP [1]: 1.93
- chromatographic logP (physchem): 2.05

SMILES: CC1(C(=O)O)CC(c2ccc3ncc(Cl)cc3c2)=NO1 (stereo not drawn) [Compound No. II-01, 3-(3-chloroquinolin-6-yl)-5-methyl-4,5-dihydro-1,2-oxazole-5-carboxylic acid]
- chromatographic logP [1]: 1.87
- chromatographic logP (physchem): 1.87

Reference: patent US9510598B2, “Nitrogen-containing heterocyclic compounds for plant disease control” (BAYER CROPSCIENCE AG, priority 2012, dated 2016)
